Tests used:
Settings in all cases: 0.1 µM; binder
PRKCQ = PRKCQ (Homo sapiens, UniProt Q04759)
PIP5K1C = PIP5K1C (Homo sapiens, UniProt O60331)
CAMK2G = CAMK2G (Homo sapiens, UniProt Q13555)
CDKL3 = CDKL3 (Homo sapiens, UniProt Q8IVW4)
NIK = NIK (Homo sapiens, UniProt Q99558)
FLT3(D835H) = FLT3(D835H) (Homo sapiens, UniProt P36888, D835H)
NEK7 = NEK7 (Homo sapiens, UniProt Q8TDX7)
RET(V804L) = RET(V804L) (Homo sapiens, UniProt P07949, V804L)
WEE1 = WEE1 (Homo sapiens, UniProt P30291)
BMPR2 = BMPR2 (Homo sapiens, UniProt Q13873)
AKT2 = AKT2 (Homo sapiens, UniProt P31751)
EGFR(G719C) = EGFR(G719C) (Homo sapiens, UniProt P00533, G719C)
MYLK = MYLK (Homo sapiens, UniProt Q15746)
MYLK3 = MYLK3 (Homo sapiens, UniProt Q32MK0)
Sequence of MYLK3 (Q32MK0 whole entry): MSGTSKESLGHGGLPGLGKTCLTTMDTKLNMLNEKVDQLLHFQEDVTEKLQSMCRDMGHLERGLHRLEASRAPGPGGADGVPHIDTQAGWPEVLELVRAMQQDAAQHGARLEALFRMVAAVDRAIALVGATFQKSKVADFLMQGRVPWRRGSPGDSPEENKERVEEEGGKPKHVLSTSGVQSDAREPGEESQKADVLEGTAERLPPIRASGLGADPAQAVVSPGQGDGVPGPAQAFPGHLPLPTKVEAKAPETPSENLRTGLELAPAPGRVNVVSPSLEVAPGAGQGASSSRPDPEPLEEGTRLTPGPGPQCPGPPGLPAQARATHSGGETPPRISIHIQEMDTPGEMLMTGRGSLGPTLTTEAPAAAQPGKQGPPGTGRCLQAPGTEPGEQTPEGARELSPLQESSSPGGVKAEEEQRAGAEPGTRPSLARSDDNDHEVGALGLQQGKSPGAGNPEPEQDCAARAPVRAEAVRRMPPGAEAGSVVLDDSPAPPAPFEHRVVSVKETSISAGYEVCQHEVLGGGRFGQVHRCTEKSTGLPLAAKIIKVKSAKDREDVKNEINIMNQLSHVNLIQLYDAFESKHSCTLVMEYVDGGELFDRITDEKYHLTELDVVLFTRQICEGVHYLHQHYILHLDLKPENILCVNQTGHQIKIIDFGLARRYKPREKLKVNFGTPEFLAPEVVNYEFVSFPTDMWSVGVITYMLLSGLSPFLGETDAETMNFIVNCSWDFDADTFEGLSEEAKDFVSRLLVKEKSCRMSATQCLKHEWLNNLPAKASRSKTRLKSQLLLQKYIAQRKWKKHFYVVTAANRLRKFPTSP

MYLK2 = MYLK2 (Homo sapiens, UniProt Q9H1R3)
CDK2 = CDK2 (Homo sapiens, UniProt P24941)
DRAK2 = DRAK2 (Homo sapiens, UniProt O94768)
PIK3CD = PIK3CD (Homo sapiens, UniProt O00329)
STK36 = STK36 (Homo sapiens, UniProt Q9NRP7)
PDPK1 = PDPK1 (Homo sapiens, UniProt O15530)
STK16 = STK16 (Homo sapiens, UniProt O75716)
Sequence of STK16 (O75716 whole entry): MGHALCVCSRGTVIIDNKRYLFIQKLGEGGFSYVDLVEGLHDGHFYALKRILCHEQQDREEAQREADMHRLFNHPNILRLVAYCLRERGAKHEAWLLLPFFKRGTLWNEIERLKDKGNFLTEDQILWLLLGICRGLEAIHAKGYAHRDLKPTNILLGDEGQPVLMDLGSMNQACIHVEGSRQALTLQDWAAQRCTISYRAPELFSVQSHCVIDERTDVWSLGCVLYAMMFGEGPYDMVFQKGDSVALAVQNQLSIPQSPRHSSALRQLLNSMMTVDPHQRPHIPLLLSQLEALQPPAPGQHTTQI

TIE1 = TIE1 (Homo sapiens, UniProt P35590)
CHEK2 = CHEK2 (Homo sapiens, UniProt O96017)
ERBB4 = ERBB4 (Homo sapiens, UniProt Q15303)
KIT(V559D) = KIT(V559D) (Homo sapiens, UniProt P10721, V559D)
Sequence of KIT(V559D) (P10721 whole entry V559D): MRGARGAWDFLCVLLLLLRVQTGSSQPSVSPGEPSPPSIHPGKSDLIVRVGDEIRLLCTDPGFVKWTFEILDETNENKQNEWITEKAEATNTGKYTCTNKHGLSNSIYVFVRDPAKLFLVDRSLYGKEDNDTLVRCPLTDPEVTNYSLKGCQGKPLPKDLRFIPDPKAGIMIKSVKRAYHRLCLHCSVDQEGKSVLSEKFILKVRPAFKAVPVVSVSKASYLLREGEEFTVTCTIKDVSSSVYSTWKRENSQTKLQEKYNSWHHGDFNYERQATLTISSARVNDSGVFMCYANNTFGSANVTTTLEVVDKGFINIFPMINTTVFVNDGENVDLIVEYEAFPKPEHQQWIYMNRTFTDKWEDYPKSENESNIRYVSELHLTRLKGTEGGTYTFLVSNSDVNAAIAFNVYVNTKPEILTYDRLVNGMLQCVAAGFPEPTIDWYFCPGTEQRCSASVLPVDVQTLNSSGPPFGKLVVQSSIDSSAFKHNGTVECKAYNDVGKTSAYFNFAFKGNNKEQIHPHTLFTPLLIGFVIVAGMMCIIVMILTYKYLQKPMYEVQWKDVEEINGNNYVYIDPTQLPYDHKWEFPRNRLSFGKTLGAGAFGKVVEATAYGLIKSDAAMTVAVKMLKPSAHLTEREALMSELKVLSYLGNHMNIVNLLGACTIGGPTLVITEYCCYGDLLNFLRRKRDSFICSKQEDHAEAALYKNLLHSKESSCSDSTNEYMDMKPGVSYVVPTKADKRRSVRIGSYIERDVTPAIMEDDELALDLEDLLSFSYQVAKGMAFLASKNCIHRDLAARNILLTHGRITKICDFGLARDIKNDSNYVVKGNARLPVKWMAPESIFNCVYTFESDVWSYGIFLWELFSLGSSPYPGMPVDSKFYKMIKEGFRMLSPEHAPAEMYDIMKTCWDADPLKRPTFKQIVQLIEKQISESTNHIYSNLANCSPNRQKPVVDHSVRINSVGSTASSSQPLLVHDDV

NEK6 = NEK6 (Homo sapiens, UniProt Q9HC98)
PIM2 = PIM2 (Homo sapiens, UniProt Q9P1W9)
Sequence of PIM2 (Q9P1W9 whole entry): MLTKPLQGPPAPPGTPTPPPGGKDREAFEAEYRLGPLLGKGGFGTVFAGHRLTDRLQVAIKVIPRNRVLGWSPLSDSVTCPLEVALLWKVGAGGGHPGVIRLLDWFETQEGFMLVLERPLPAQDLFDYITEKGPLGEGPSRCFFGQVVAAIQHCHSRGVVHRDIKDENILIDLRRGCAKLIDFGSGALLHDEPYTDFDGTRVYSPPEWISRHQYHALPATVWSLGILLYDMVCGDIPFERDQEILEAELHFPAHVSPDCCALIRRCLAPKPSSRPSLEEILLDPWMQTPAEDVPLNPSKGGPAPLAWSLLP

IKK-beta = IKK-beta (Homo sapiens, UniProt O14920)
ACVR2A = ACVR2A (Homo sapiens, UniProt P27037)
FLT3(N841I) = FLT3(N841I) (Homo sapiens, UniProt P36888, N841I)
ERBB3 = ERBB3 (Homo sapiens, UniProt P21860)

Sequence of RET(V804L) (P07949 whole entry V804L): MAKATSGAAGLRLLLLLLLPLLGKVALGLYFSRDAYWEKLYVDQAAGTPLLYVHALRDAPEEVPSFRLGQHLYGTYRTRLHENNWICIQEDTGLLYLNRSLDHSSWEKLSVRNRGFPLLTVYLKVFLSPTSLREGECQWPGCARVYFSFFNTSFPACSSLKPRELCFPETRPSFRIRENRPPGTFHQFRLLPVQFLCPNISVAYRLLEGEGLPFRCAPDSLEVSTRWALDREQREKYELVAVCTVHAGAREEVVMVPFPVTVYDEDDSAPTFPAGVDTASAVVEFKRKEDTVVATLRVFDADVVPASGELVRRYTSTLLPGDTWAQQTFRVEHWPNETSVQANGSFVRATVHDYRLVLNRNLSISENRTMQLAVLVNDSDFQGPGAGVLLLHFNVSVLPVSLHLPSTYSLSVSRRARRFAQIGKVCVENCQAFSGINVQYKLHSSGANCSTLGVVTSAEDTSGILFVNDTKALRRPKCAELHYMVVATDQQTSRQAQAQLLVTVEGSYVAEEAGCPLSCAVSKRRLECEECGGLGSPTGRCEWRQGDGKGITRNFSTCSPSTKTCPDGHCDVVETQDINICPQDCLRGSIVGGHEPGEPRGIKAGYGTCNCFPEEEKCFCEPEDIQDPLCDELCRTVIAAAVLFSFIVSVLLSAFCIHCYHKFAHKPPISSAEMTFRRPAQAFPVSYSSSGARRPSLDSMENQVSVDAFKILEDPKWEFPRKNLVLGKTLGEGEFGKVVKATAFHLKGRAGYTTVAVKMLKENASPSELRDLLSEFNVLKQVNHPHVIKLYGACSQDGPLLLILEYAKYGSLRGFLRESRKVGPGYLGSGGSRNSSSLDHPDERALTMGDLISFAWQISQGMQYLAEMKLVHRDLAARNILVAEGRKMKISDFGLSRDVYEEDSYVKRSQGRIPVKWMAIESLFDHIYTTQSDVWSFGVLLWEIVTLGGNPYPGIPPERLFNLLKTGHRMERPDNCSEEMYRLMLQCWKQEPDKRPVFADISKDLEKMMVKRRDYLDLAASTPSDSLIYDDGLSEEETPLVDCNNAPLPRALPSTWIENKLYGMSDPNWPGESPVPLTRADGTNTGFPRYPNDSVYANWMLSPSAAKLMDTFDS
Sequence of CDKL3 (Q8IVW4 whole entry): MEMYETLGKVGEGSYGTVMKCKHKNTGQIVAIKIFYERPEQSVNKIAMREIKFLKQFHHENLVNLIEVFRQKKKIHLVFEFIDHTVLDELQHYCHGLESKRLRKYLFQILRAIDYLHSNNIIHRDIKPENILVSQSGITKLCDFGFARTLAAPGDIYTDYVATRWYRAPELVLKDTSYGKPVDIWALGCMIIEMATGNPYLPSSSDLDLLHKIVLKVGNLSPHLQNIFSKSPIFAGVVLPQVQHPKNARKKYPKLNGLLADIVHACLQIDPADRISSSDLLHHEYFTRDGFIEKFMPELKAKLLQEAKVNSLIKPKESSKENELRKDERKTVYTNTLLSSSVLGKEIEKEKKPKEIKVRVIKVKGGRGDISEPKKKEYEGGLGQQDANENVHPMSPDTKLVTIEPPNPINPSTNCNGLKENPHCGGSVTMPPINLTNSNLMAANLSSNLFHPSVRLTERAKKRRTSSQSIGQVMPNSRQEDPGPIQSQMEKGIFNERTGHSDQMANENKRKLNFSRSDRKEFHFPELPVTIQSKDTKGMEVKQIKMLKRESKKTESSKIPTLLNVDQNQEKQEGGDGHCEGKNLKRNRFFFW
Sequence of WEE1 (P30291 whole entry): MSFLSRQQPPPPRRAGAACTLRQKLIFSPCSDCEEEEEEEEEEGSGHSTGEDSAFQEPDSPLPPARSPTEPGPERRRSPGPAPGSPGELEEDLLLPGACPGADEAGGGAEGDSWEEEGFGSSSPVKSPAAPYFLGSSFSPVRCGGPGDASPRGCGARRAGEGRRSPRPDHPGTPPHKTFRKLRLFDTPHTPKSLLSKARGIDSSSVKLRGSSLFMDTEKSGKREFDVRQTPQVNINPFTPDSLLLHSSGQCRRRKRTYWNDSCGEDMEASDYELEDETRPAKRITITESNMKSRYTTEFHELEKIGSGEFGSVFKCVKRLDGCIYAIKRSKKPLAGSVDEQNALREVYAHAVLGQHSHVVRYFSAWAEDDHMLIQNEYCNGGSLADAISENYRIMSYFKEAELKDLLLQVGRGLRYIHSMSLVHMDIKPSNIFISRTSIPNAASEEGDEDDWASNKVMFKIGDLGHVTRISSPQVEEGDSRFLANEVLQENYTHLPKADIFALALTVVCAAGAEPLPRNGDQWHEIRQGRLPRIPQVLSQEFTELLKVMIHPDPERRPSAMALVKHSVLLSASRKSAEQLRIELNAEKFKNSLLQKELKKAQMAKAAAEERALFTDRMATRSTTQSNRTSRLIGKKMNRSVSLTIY

## CNc1ncc2cc(-c3ccc(-c4cccc(C)n4)cc3Cl)c(=O)n(C[C@H]3OC[C@H](N)CO3)c2n1 [compound 6, G-5555]
PRKCQ
  Percent Control: 81%
PIP5K1C
  Percent Control: 100%
CAMK2G
  Percent Control: 100%
CDKL3
  Percent Control: 89%
NIK
  Percent Control: 100%
FLT3(D835H)
  Percent Control: 89%
NEK7
  Percent Control: 100%
RET(V804L)
  Percent Control: 94%
WEE1
  Percent Control: 98%
BMPR2
  Percent Control: 100%
AKT2
  Percent Control: 100%
EGFR(G719C)
  Percent Control: 100%
MYLK
  Percent Control: 75%
MYLK3
  Percent Control: 74%
MYLK2
  Percent Control: 93%
CDK2
  Percent Control: 96%
DRAK2
  Percent Control: 66%
PIK3CD
  Percent Control: 53%
STK36
  Percent Control: 36%
PDPK1
  Percent Control: 99%
STK16
  Percent Control: 100%
TIE1
  Percent Control: 100%
CHEK2
  Percent Control: 100%
ERBB4
  Percent Control: 100%
KIT(V559D)
  Percent Control: 99%
NEK6
  Percent Control: 100%
PIM2
  Percent Control: 100%
IKK-beta
  Percent Control: 93%
ACVR2A
  Percent Control: 100%
FLT3(N841I)
  Percent Control: 100%
ERBB3
  Percent Control: 77%

— paper doi:10.1101/2021.04.08.439011v1 (biorxiv, 2021)
